In patent US9873709B2 (priority 2013, dated 2018):

What follows are molecules tested on JAK1-dependent STAT6 phosphorylation downstream of IL-13 stimulation in TF-1 human erythroleukemia cells (assay: cells). Conditions: TF-1, read-out: IL-13-pSTAT6 IC50.
Procedure: Inhibitor potency (EC50) was determined in cell-based assays designed to measure JAK1 dependent STAT phosphorylation.
Prior to use in the assays, TF-1 cells were starved of GM-CSF overnight in OptiMEM medium (Life Technologies, Grand Island, N.Y.) supplemented with 0.5% charcoal/dextran stripped fetal bovine serum (FBS), 0.1 mM non-essential amino acids (NEAA), and 1 mM sodium pyruvate. The assays were run in 384-well plates in serum-free OptiMEM medium using 300,000 cells per well. In a second assay approach, BEAS-2B human bronchial epithelial cells obtained from ATCC were plated at 100,000 cells per well of a 96-well plate one day prior to the experiment. The BEAS-2B assay was run in complete growth medium (bronchial epithelial basal medium plus bulletkit; Lonza; Basel, Switzerland).
Test compounds were serially diluted 1:2 in DMSO and then diluted 1:50 in medium just before use. Diluted compounds were added to the cells, for a final DMSO concentration of 0.2%, and incubated for 30 min (for the TF-1 assay) or 1 hr (for the BEAS-2B assay) at 37° C. Then, cells were stimulated with human recombinant cytokine at their respective EC90 concentrations, as previously determined for each individual lot. […] The resultant samples were frozen in the plates at −80° C. Compound mediated inhibition of STAT6 phosphorylation was measured in the cell lysates using MesoScale Discovery (MSD) technology (Gaithersburg, Md.).

SMILES | IC50
CN1CCC(N(C)C(=O)c2ccc(Nc3nc4c(C5=CCN(C(=O)C6CC6(C)C)CC5)cccn4n3)cc2)CC1 (centres unmarked) [Example 2-160, 4-[[8-[1-(2,2-dimethylcyclopropanecarbonyl)-3,6-dihydro-2H-pyridin-4-yl]-[1,2,4]triazolo[1,5-a]pyridin-2-yl]amino]-N-methyl-N-(1-methyl-4-piperidyl)benzamide] | 47 nM
CN1CCC(N(C)C(=O)c2ccc(Nc3nc4c(C5=CCN(C(=O)C6C(C)(C)C6(C)C)CC5)cccn4n3)cc2)CC1 [Example 2-161, N-methyl-N-(1-methyl-4-piperidyl)-4-[[8-[1-(2,2,3,3-tetramethylcyclopropanecarbonyl)-3,6-dihydro-2H-pyridin-4-yl]-[1,2,4]triazolo[1,5-a]pyridin-2-yl]amino]benzamide] | 44.2 nM
CN1CCC(N(C)C(=O)c2ccc(Nc3nc4c(C5=CCN(C(=O)CC(F)(F)F)CC5)cccn4n3)cc2)CC1 [Example 2-163, N-methyl-N-(1-methyl-4-piperidyl)-4-[[8-[1-(3,3,3-trifluoropropanoyl)-3,6-dihydro-2H-pyridin-4-yl]-[1,2,4]triazolo[1,5-a]pyridin-2-yl]amino]benzamide] | 28.4 nM
CCOC(=O)N1CC=C(c2cccn3nc(Nc4ccc(C(=O)N5CC(CN)C5)cc4)nc23)CC1 [Example 2-165, ethyl 4-[2-[4-[3-(aminomethyl)azetidine-1-carbonyl]anilino]-[1,2,4]triazolo[1,5-a]pyridin-8-yl]-3,6-dihydro-2H-pyridine-1-carboxylate] | 187 nM
CCOC(=O)N1CC=C(c2cccn3nc(Nc4ccc(C(=O)NCCN5CC(C)OC(C)C5)cc4)nc23)CC1 (centres unmarked) [Example 2-167, ethyl 4-[2-[4-[2-(2,6-dimethylmorpholin-4-yl)ethylcarbamoyl]anilino]-[1,2,4]triazolo[1,5-a]pyridin-8-yl]-3,6-dihydro-2H-pyridine-1-carboxylate] | 15.8 nM
CCOC(=O)N1CC=C(c2cccn3nc(Nc4ccc(C(=O)NC(C)c5cccc(C)n5)cc4)nc23)CC1 (centres unmarked) [Example 2-170, ethyl 4-[2-[4-[1-(6-methyl-2-pyridyl)ethylcarbamoyl]anilino]-[1,2,4]triazolo[1,5-a]pyridin-8-yl]-3,6-dihydro-2H-pyridine-1-carboxylate] | 14.8 nM
CCOC(=O)N1CC=C(c2cccn3nc(Nc4ccc(C(=O)NCCc5ccncc5)cc4)nc23)CC1 [Example 2-172, ethyl 4-[2-[4-[2-(4-pyridyl)ethylcarbamoyl]anilino]-[1,2,4]triazolo[1,5-a]pyridin-8-yl]-3,6-dihydro-2H-pyridine-1-carboxylate] | 12 nM
CCOC(=O)N1CC=C(c2cccn3nc(Nc4ccc(C(=O)N5CC6(CCN(C)CC6)C5)cc4)nc23)CC1 [Example 2-175, ethyl 4-[2-[4-(7-methyl-2,7-diazaspiro[3.5]nonane-2-carbonyl)anilino]-[1,2,4]triazolo[1,5-a]pyridin-8-yl]-3,6-dihydro-2H-pyridine-1-carboxylate] | 12.2 nM
CCOC(=O)N1CC=C(c2cccn3nc(Nc4ccc(C(=O)N5CC6(CCCN6C)C5)cc4)nc23)CC1 [Example 2-176, ethyl 4-[2-[4-(5-methyl-2,5-diazaspiro[3.4]octane-2-carbonyl)anilino]-[1,2,4]triazolo[1,5-a]pyridin-8-yl]-3,6-dihydro-2H-pyridine-1-carboxylate] | 8.1 nM
CCOC(=O)N1CC=C(c2cccn3nc(Nc4ccc(C(=O)NCc5cccnc5C)cc4)nc23)CC1 [Example 2-177, ethyl 4-[2-[4-[(2-methyl-3-pyridyl)methylcarbamoyl]anilino]-[1,2,4]triazolo[1,5-a]pyridin-8-yl]-3,6-dihydro-2H-pyridine-1-carboxylate] | 15.4 nM
CCOC(=O)N1CC=C(c2cccn3nc(Nc4ccc(C(=O)NCc5cncc(C)c5)cc4)nc23)CC1 [Example 2-178, ethyl 4-[2-[4-[(5-methyl-3-pyridyl)methylcarbamoyl]anilino]-[1,2,4]triazolo[1,5-a]pyridin-8-yl]-3,6-dihydro-2H-pyridine-1-carboxylate] | 32.6 nM
